# Source: patent publication US11702629B2, “Acceleration of stem cell differentiation” (Regents of the University of Minnesota, priority 2017, dated 2023)
# “Also recorded” adds a separate entry of the source.
# Columns and labels:
# [1] = system: human pluripotent stem cells; test: Accelerated neural induction of hPSCs/hiPSCs into neuroepithelium, 24 hours (NANOG/SOX2/SOX1/PAX6 immunostaining); format: cell-based; conditions: for Effect on NE formation of inhibitors of FGF signaling cascade components: standard neuralizing conditions
# Procedure: Prior to passaging, a recombinant human vitronectin stock solution (500 ug/mL, Peprotech AF-140-09, Rocky Hill, N.J., USA) was diluted 1:100 in DPBS+/+ (ThermoFisher Scientific cat #14040-133, Waltham, Mass., USA) and used to coat 9.6 cm^2 tissue-culture treated wells (Fischer Scientific, Hampton, N.H.) for one hour at room temperature. hPSCs were washed once with 1 mL hypertonic citrate buffer (11) or equivalent and then incubated with 1 mL hypertonic citrate buffer (11) at 37° C. for 6 minutes until colony detachment occurred. The colonies were collected and processed into 25-50 cell fragments by trituration and the dissociation quenched with 5 mL Essential 6 Medium (ThermoFisher Scientific A1516401, Waltham, Mass., USA). Suspensions were collected into 15 mL conical tubes and centrifuged for 1 minute at 200×G. Supernatants were aspirated and pellets resuspended into 1.2 mL Essential 6 Medium (ThermoFisher Scientific A2858501, Waltham, Mass., USA) assuming a 1:6 split ratio. 0.2 mL cultures were seeded onto rhVTN-coated wells containing Essential 8 Medium. Cultures were maintained in Essential 8 Medium with daily media changes and passaged every 3 days.
# (§1) Differentiation medium consisting of Essential 6 supplemented with LDN-193189 HCl (500 nM, Selleckchem cat #S7507, Houston, Tex. USA) and BGJ398 (100 nM Selleckchem cat #S2183 Houston, Tex. USA) was combined and distributed 2 mL per vitronectin-coated well of a 6-well plate. hPSCs were dissociated into small clumps (25-50 cells per clump) as indicated above. 0.2 to 0.4 mL cultures were seeded onto rhVTN-coated wells containing differentiation medium.
# Conditions were assayed in which the ERK pathway was inhibited at both receptor and downstream intracellular effector levels. The VEGFR2/FGFR2 inhibitor SU5402 was compounded with previously known neurulation conditions containing the ALK2/3 receptor antagonist LDN 193189 and the ALK 4/5/7 receptor antagonist A8-30-1 to observe their combined effect on undifferentiated pluripotent stem cells.
# 24-hour differentiating cultures were analyzed prior to cell death for various transcription factors associated with pluripotency and NE formation. […] SOX2, common to both hPSCs and NE, was maintained.
# day-2 neuromesoderm = test: Conversion of day-2 neuromesoderm into spinal neuroepithelium; format: cell-based, human; conditions: day 3
# Procedure: Day-one Neuromesoderm progenitors were exposed to differentiation medium consisting of Essential 6 supplemented with CHIR 99021 (3 uM, Tocris cat #4423, Bristol UK) and FGF-Basic TS™ (20 ng/mL, Humanzyme cat #HZ-1286, Chicago, Ill. USA) for 24 hours. This day-two neuromesoderm was further exposed to differentiation medium consisting of Essential 6 supplemented with BGJ398 (100 nM Selleckchem cat #52183 Houston, Tex. USA) to create a day-three population of PAX3/SOX1/HOXB4-positive neuroepithelial cells.
# It has been shown that retinoic acid signaling is needed to convert neuromesoderm into spinal cord neuroepithelium. […] It has been shown that retinoids exert multiple simultaneous functions in the developing spinal cord, inhibiting FGF signaling, while activating both WNT and SHH signaling. […] This spinal neuroepithelium was further characterized with respect to additional markers and discovered that it was partially PAX3-positive, an early spinal neural plate marker. The day-3 conditions were optimized to maximize PAX3 and it was discovered that moderate WNT signaling was needed in addition to FGF inhibition to derive a pure population of cervical neural plate epithelium homogeneously expression PAX3 (FIG. 18). To investigate the dorso-ventral patterning competency of these retinoid-independent spinal neuroepithelial cells, the day-3 cultures were exposed to SHH signaling. […]
# [2] = system: human pluripotent stem cells; test: Accelerated production of neuromesoderm progenitors directly from hPSCs, 24 hours (SOX2/T immunophenotype); format: cell-based
# Procedure: as §1, with “Houston, Tex. USA), BGJ398 (100” for “Houston, Tex. USA) and BGJ398 (100”, “#S2183 Houston, and TX USA), and CHIR 99021 (3 uM, Tocris cat #4423, Bristol UK) was combined” for “#S2183 Houston, Tex. USA) was combined”
# The previous scenario utilized a neuroectoderm intermediate for the generation of neuromesoderm. Because it has been shown that neuromesoderm can be derived directly from hPSCs, high levels of WNT signaling were incorporated into the day-1 neuroectoderm conditions to investigate whether this could induce neuromesoderm directly.
# day-1 neuroectoderm = test: Caudalization of day-1 neuroectoderm into neuromesoderm; format: cell-based, human; conditions: by day 2
# Procedure: Controversy currently exists surrounding the origin of the most caudal segments of the central nervous system that include the spinal cord. In vitro conditions for generating spinal cord tissue have traditionally relied upon the formation of anterior neural plate expressing SOX1+/FOXG1+/OTX2+/PAX5−/HOXB4− that is caudalized with factors such as FGF, WNT, and retinoic acid to create SOX1+/FOXG1−/OTX2−/PAX5−/HOXB4+ positive cervical spinal cord tissue. […] An additional 24 hours of WNT/FGF signaling converted this population into SOX1−/SOX2+/T+/TBX6−/HOXB4+ cervical-level neuromesoderm (FIG. 13).
# [3] = 24-hour cultures, SU5402 with LDN 193189 and A8-30-1
compound,measurement,setting,value
"CCN1CCN(c2ccc(Nc3cc(N(C)C(=O)Nc4c(Cl)c(OC)cc(OC)c4Cl)ncn3)cc2)CC1 [BGJ398, 3-(2,6-dichloro-3,5-dimethoxyphenyl)-1-(6-(4-(4-ethylpiperazin-1-yl)-phenylamino)pyrimidin-4-yl)-1-methylurea]",Induction of SOX1-immunoreactivity when substituted for SU5402 in the inhibitor cocktail,"[1]; 24 hours, panel of hPSC lines",matches or exceeds marker expression levels seen when using SU5402
same,Population created from day-2 neuromesoderm,day-2 neuromesoderm,created a pure population of spinal neuroepithelium lacking evidence of neuromesoderm or somite tissues
Cc1c[nH]c(-c2cnc(NCCNc3ccc(C#N)cn3)nc2-c2ccc(Cl)cc2Cl)n1 [CHIR99021],HOXB4 expression of day-2 cultures,[2]; additional 24 hours incubation after day-1 neuromesoderm induction,upregulated the HOXB4 transcription factor
same,Population induced from day-1 neuroectoderm by high WNT signaling,day-1 neuroectoderm,sufficient to induce a SOX1−/SOX2+/T+/TBX6−/HOXB4− population by day 2
"O=C(NOC[C@H](O)CO)c1ccc(F)c(F)c1Nc1ccc(I)cc1F [PD0325901, N-[(2R)-2,3-Dihydroxypropoxy]-3,4-difluoro-2-[(2-fluoro-4-iodophenyl)amino]-benzamide]",Replacement of BGJ398 in neuromesoderm formation,[2]; with LDN193189 and CHIR99021,fully replaces use of BGJ398
same,Effect on NE formation of inhibitors of FGF signaling cascade components,[1],performed similarly to BGJ398; also recorded: substitutes for SU5402
same,Replacement of BGJ398 in neural induction,[1]; with LDN 193189,fully replaces use of BGJ398
COc1nccc(-c2c(-c3ccc(F)cc3)ncn2C2CCC(O)CC2)n1 (stereo not drawn) [SB239063],Effect on NE formation of inhibitors of FGF signaling cascade components,[1],had no effect
"Cc1c[nH]c(C=C2C(=O)Nc3ccccc32)c1CCC(=O)O [SU5402, 3-[4-Methyl-2-(2-oxo-1,2-dihydro-indol-3-ylidenemethyl)-1H-pyrrol-3-yl]-propionic acid]",SOX1-positivity (cells),"[1]; 24-hour cultures, SU5402 compounded with LDN 193189 and A8-30-1",greater than 90%
same,NANOG positivity compared to undifferentiated control cultures,[1]; [3],reduced NANOG positivity
same,SOX2 expression,[1]; [3],maintained
same,Outcome of continued culture,"[1]; additional 48 hours, SU5402 with LDN 193189 and A8-30-1, data not shown",resulted in cell death
